# Measurements published in patent US6441029B1, “Method of suppressing tumor growth with combinations of isoprenoids and statins” (Wisconsin Alumni Research Foundation, priority 1997, dated 2002).
# Several values for one entry are separate records, joined by “and”; a condition that tells them apart may be missing. Equal values may be shown once. Read-outs that look alike come from different tables or passages of the source. Marks after values point to notes of the source that are not given here.
# Experiments:
# B16 melanoma cells = assay: Paired isoprenoids, 48 hour cell count (FIG. 2A, 2B); type: cell-based, Murine
# Experimental: (§1) Cultures, seeded with 1-1.5×10^5 cells, were incubated for 24 hours at 37° C. in a humidified atmosphere of 5% CO2. Isoprenoids, dissolved in absolute ethanol, were added at 24 hours (0 time); all cultures contained 5 mL ethanol/L ([…]). The cultures were incubated for an additional 48 hours. The media was removed and the monolayers were washed twice with Hanks' Balanced Salt Solution (Sigma) and then incubated with a trypsin-EDTA solution (Sigma) at 37° C. for 2 minutes. Trypsin was inactivated by suspending the cells in medium containing 10% fetal bovine serum (Sigma). The cells were pelleted at 250×g and resuspended in Hanks' Balanced Salt Solution. Viable cells, cells that excluded 0.4% trypan blue (GIPCOBRL), were counted with a hemocytometer; 24 hour cell counts were deducted from final cell counts to provide an estimate of the net increase in cell number.
# We next determined that the effects of the isoprenoids on the growth of B16 melanoma cells in culture are additive, and in some cases, synergistic. FIG. 2A illustrates the additive effects of γ-tocotrienol and β-ionone on B16 melanoma cell populations. Values are means±SD, n=28; pooled SEM=36 (×10^4). Cell counts calculated to show the decreased population relative to the control are listed on the insert table.
# FIG. 2B illustrates the additive effects of carvacrol and β-ionone on B16 melanoma cell populations. Values are means±SD, n=28; pooled SEM=62 (×10^4). Cell counts calculated to show the decreased population relative to the control are listed in the inset table. ^a-hMeans not sharing a superscript (a>b>c>d>e>f>g>h) are different (P<0.001). Referring to FIG. 2, B16 melanoma cells were incubated with β-ionone and d-γ-tocotrienol in one test (FIG. 2A). d-γ-Tocotrienol (7.5 μmol/L) and β-ionone (50 μmol/L) reduced the 48 hour cell count by 19% and 10% respectively (FIG. 2A). The 34% reduction in cell number achieved with the paired isoprenoids exceeded the 29% reduction predicted by the sum of the individual effects (FIG. 2A, inset). At higher concentrations d-γ-tocotrienol (15 μmol/L) and β-ionone (100 μmol/L) reduced the 48 hour cell count by 34% and […] respectively; the additive effect, a 68% reduction in cell number, was also greater than the sum of the individual effects (59%) (FIG. 2A, inset).
# Carvacrol (50 μmol/L) and β-ionone (75 μmol/L) reduced the 48 hour cell count by 25% and 31% respectively; the additive effect, a 48% reduction in cell number, was less than the 56% reduction predicted by the sum of the individual effects. Carvacrol (100 μmol/L) and β-ionone (150 μmol/L) reduced the cell count by 35% and 65% respectively; the additive effect, an 84% reduction in cell number, again was less than the 100% reduction predicted by the sum the individual effects (FIG. 2B, inset). The reduction in cell number predicted by the sum of the individual effects of the isoprenoids was highly correlated with that achieved with the paired isoprenoids (r=0.91, n=8, P<0.01).
# [1] = tested on: Murine B16(F10) melanoma cells; assay: IC50 determinations: net increase in 48 hour melanoma cell count; type: cell-based
# Experimental: as §1
# FIG. 1 is a representative evaluation of the dose-dependent impact of five different tocols on the proliferation of melanoma B16 cells. Cultures (3 mL) seeded with 1-1.5×10^5 cells were incubated for 24 hours prior to the introduction of the tocols. Viable cells were counted at 48 hours following the addition of the tocols. The cell count at 24 hours (0 time) is shown by the dashed line. The intersection of the solid horizontal line and the line plotted for each tocol indicates the concentration at which the tocol suppressed by 50% the increase in cell number during the incubation (IC50 value). IC50 values (mean, SD and n) for all isoprenoids tested are listed on Table 1. […] The growth-suppressive potency of the individual tocotrienols was inverse to the number of methyl groups on the 6-chromanol ring: d-α-tocotrienol (methyl groups at carbons 5, 7, 8 and 2)<<d-γ-tocotrienol (methyl groups at carbons 7, 8 and 2)<d-δ-tocotrienol (methyl groups at carbons 8 and 2)<<d-2-desmethyl tocotrienol (no methyl groups) (Table 1).
# [2] = ubiquinone given to patients receiving 30 mg/kg or higher doses of lovastatin; cited from earlier work
# implanted 216 melanomas = details: massive intake, 733 μmol/d; Meadows, et al., 1991; cited from earlier work
# B16(F10) melanoma = details: for retardation in tumor growth: 10 days prior to and 28 days following implantation, P<0.05
# Experimental: The first examined the impact of a diet-relevant intake of d-γ-tocotrienol on the growth of B16(F10) melanomas in host mice. […] We first prepared a basal diet mix, patterned after the AIN-76A formulation (American Institute of Nutrition, 1977) but free of corn oil and dl-α-tocopherol. These ingredients and Vitamin E-stripped corn oil were purchased from Teklad Test Diets, Madison, Wis. Stock solutions of dl-α-tocopherol (80 μmol/g) and d-γ-tocotrienol (80 μmol/g) were prepared with vitamin E-stripped corn oil. Stock solutions of the tocols, diluted with vitamin E-stripped corn oil, were mixed with the basal diet to provide finished diets containing 5% corn oil and specified tocol concentrations. Where noted, β-ionone was added to the oil. The diets, mixed weekly, were stored under refrigeration. Food cups were cleaned and refilled daily.
# Experiment 1: Weanling C57BL female mice (Harlan-Sprague Dawley, Madison, Wis.) were housed in groups of four on wood shavings in plastic cages and maintained at 25° C. with a 12 hour light-dark cycle. The four groups of mice (20/group) were fed experimental diets for 10 days prior to and for 28 days following the implantation of B16 melanoma cells. The split plot design consisted of four treatments comprised of two tocols, dl-α-tocopherol and d-γ-tocotrienol, each presented at two levels, 116 and 924 μmol/kg diet. This design permitted two comparisons of diets equal in tocol content and one comparison of diets about equal in d-α-tocopherol equivalents. […] We then corrected for the biological activity of the dl-α-tocopherol mixture (70% of the activity of d-α-tocopherol) in arriving at the 8:1 tocotrienol/tocopherol ratio used in formulating the experimental diets. Melanoma cells, cultured and harvested as previously, described (Shoff, et al., 1991), were washed twice with RPMI 1640 containing 10% Fetal Bovine Sera (GIBCOBRL). The pelleted cells were suspended in RPMI 1640 and counted (98% viable) after a 1:20 dilution in 0.4% trypan blue. The cells were further diluted in RPMI 1640 (1×10^8 cells/L) and 0.1 mL of the suspension (1×10^4 cells) was injected subcutaneously into the flank of each mouse. […] The mice were killed by CO2 overdose and the tumors were excised and weighed.
# Statistical Methods: StatView and SuperANOVA software (Abacus Concepts, Berkeley, Calif.) were used for the assessment of treatment-mediated effects. Treatment-mediated differences in body and tumor weights, days to tumor appearance and days to morbidity were identified with split plot analysis of variance and pairwise t-tests of least squares means. Treatment-mediated differences in days to morbidity were also assessed using parametric (paired t-test) and nonparametric (Wilcoxon signed rank) tests (Haycock, et al., 1992).
# The first dietary study evaluated the impact of d-γ-tocotrienol and dl-α-tocopherol on days to detection of a solid tumor and growth of implanted B16 melanomas.
# [3] = tested on: Murine B16(F10) melanoma cells; details: L. He, et al., J. Nutr. 1997; read-out: IC50, proliferation of murine melanoma B16/F10 cells; cited from earlier work
# [4] = tested on: murine melanoma B16/F10 cells; assay: In vitro growth assays of lovastatin, β-ionone and γ-tocotrienol alone and combined (Table 5); type: cell-based
# [5] = tested on: established implanted B16 melanoma; assay: Experiment 2: isoprenoid-enriched diets, survival of mice bearing established melanomas; type: in vivo, C57BL female mice; details: for Days survival, Mean / Days survival, Median: n = 12; for growth of established B16 melanomas: diet providing 7 μmol/d; for duration of host survival: experimental diets versus control, P<0.03
# Experimental: Where noted, β-ionone was added to the oil. The diets, mixed weekly, were stored under refrigeration. Food cups were cleaned and refilled daily.
# Experiment 2: Weanling female C57BL female mice (n=60, Harlan Sprague-Dawley) were acclimated to the housing conditions and AIN-76A diet (116 μmol dl-α-tocopherol/kg diet) as described above. Tumors were implanted and the mice continued to receive the AIN-76A diet. Beginning on day 8 post-implant the mice were palpated daily for the presence of a tumor. Tumors were first detected on day 14. Random numbers were generated for assigning each mouse in a sequential subset of five to a diet. Experimental treatments provided 2 and 4 mmol d-γ-tocotrienol/kg diet. We additionally tested the impact of β-ionone (2 mmol β-ionone/kg AIN-76A diet) and that of a blend of the two isoprenoids (2 mmol each/kg diet) on the survival of the mice.
# We then asked if either dietary d-γ-tocotrienol or β-ionone would prolong the survival of mice bearing implanted melanomas. Dietary treatments were initiated following the detection of solid tumors. We also asked whether these structurally diverse isoprenoids would have an additive effect on survival. The experimental groups were constructed by random assignment of each member of successive subsets of 5 mice to one of the experimental diets. […] Treatments increased median duration of survival by 42±4.5% and the mean duration of survival by 30% (P<0.005); differences between duration of survival means of the experimental groups were not significant (Table 3, FIG. 3). FIG. 3 is a survival curve for host mice receiving isoprenoid-enriched diets following the detection of a solid implanted B16 melanoma. Mean survival durations are presented on Table 4. β-ionone and γ-tocotrienol^1 treatments provided 2 mmol of the isoprenoid/kg diet; the blend provided 2 mmol of each isoprenoid/kg diet; and γ-tocotrienol^2 provided 4 mmol γ-tocotrienol/kg diet.
# [6] = tested on: implanted murine melanoma B16F10 tumors; details: cited from earlier work
# [7] = read-out: IC50: concentration required to suppress the increase in the population of melanoma cells by 50% during a 48 hour incubation; 48 hour incubation; means ± SD
# [8] = 48 hour incubation; means ± SD; read-out: IC50: concentration required to suppress the increase in the population of melanoma cells by 50% during a 48 hour incubation
smiles,measurement,setting,value
"Cc1ccc(C(C)C)cc1O [Carvacrol, 5-isopropyl-2-methylphenol, reference compound]",reduction of 48 hour cell count,B16 melanoma cells; 50 μmol/L,25%
same,reduction of 48 hour cell count,B16 melanoma cells; 100 μmol/L,35%
same,IC50,[1]; [7],120 ± 15 µM
"CC(C)=CCC/C(C)=C/CC/C(C)=C/CO [Farnesol, trans, trans 3,7,11-trimethyl-2,6,10 dodecatrien-1-ol]",IC50,[1]; [8],50 µM
"CC(C)=CCC/C(C)=C/CO [Geraniol, trans 3,7-dimethyl-2,6-octadien-1-ol]",IC50,[1]; [8],150 ± 19 µM
"C=C(C)C1CC=C(C=O)CC1 (stereo not drawn) [Perillaldehyde, [R]-4-isopropenyl-1-carboxaldehyde cyclohexene]",IC50,[1]; [7],120 ± 17 µM
"C=C(C)[C@@H]1CC=C(CO)CC1 [Perillyl alcohol, [R]4-isopropenyl-1-methanol-cyclohexene]",IC50,[1]; [8],250 µM
"Cc1ccc(C(C)C)c(O)c1 [Thymol, 5-methyl-2-isopropylphenol]",IC50,[1]; [8],120 ± 15 µM
COC1=C(OC)C(=O)C(C/C=C(\C)CC/C=C(\C)CC/C=C(\C)CC/C=C(\C)CC/C=C(\C)CC/C=C(\C)CC/C=C(\C)CC/C=C(\C)CC/C=C(\C)CCC=C(C)C)=C(C)C1=O [Ubiquinone],incidence of musculoskeletal toxicity of lovastatin,[2],did not decrease
same,severity of musculoskeletal toxicity of lovastatin,[2],significantly decreased
O=C1O[C@H]([C@@H](O)CO)C(O)=C1O [ascorbic acid],growth of implanted melanomas,implanted 216 melanomas,suppressed
"Cc1c(C)c2c(c(C)c1O)CCC(C)(CCCC(C)CCCC(C)CCCC(C)C)O2 (stereo not drawn) [d1-α-Tocopherol, 2,5,7,8-tetramethyl-2-(4,8,12-trimethyltridecyl)-chroman-6-ol]",IC50,[1]; [7],> 1600 µM
same,impact on cell number (FIG. 1),[1]; viable cells at 48 hours after addition,no impact on cell number
same,body weight at the time of tumor implant,"B16(F10) melanoma; mouse, in vivo",significantly lower
"CC(C)=CCCC(C)=CCCC(C)=CCCC1CCc2cc(O)ccc2O1 (stereo not drawn) [d-2-desmethyl Tocotrienol, 2-(4,8,12-trimethyltrideca-3,7,11-trienyl)-chroman-6-ol]",IC50,[1]; [8],0.9 µM
"C=C(C)[C@H]1CC=C(C)CC1 [d-Limonene, [R]4-isopropenyl-1-methyl-1-cyclohexene]",IC50,[1]; [8],450 µM
"CC(C)=CCCC(C)=CCCC(C)=CCCC1(C)CCc2c(C)c(O)c(C)c(C)c2O1 (stereo not drawn) [d-α-Tocotrienol, 2,5,7,8-tetramethyl-2-(4,8,12-trimethyltrideca-3,7,11-trienyl)-chroman-6-ol]",IC50,[1]; [8],110 µM
"CC(C)=CCCC(C)=CCCC(C)=CCCC1(C)CCc2cc(O)c(C)c(C)c2O1 (stereo not drawn) [d-γ-Tocotrienol, 2,7,8-trimethyl-2-(4,8,12-trimethyltrideca-3,7,11-trienyl)-chroman-6-ol]",reduction of 48 hour cell count,B16 melanoma cells; 7.5 μmol/L,19%
same,reduction of 48 hour cell count,B16 melanoma cells; 15 μmol/L,34%
same,IC50,[1]; [7],20 µM
same,IC50,[3],20 µM
same,Growth,[4]; 5 μmol/L,90 % of Control
same,Growth,[4]; 7.5 μmol/L,81 % of Control
same,Growth,[4]; 10 μmol/L,85 % of Control and 72 % of Control
same,Growth,[4]; 15 μmol/L,66 % of Control and 77 % of Control
same,Growth,[4]; 20 μmol/L,65 % of Control
same,retardation in tumor growth,"B16(F10) melanoma; 116 μmol/kg diet, isomolar substitution for dl-α-tocopherol in AIN-76A diet",36%
same,retardation in tumor growth,"B16(F10) melanoma; 928 μmol/kg diet, Vitamin E-equivalent substitution for dl-α-tocopherol in AIN-76A diet",50%
same,days post-implant to tumor detection,"B16(F10) melanoma; 928 μmol/kg diet, least mean squares analysis",differed significantly from the effects of the other treatments
same,"28 day tumor weight, least mean squares analyses",B16(F10) melanoma; 116 and 928 μmol/kg diet,tumor growth-suppressive action
same,growth of the B16 melanoma implanted in the flank of host mice,B16(F10) melanoma; diet providing an intake of 0.4 μmol/d (diet-relevant intake),suppressed
same,suppression of tumor growth,B16(F10) melanoma; diet providing only the d-α-tocopherol-equivalent of the AIN-76A diet,highly significant suppression
same,further change in duration of survival on doubling the intake,"[5]; 14 μmol/d versus 7 μmol/d, P=0.95",-0.21 days
same,"Days survival, Mean",[5]; 2 mmol/kg diet,18.67^a Days
same,"Days survival, Median",[5]; 2 mmol/kg diet,20.0 days
same,"Days survival, Mean",[5]; 4 mmol/kg diet,18.46^a Days
same,"Days survival, Median",[5]; 4 mmol/kg diet,22.0 days
same,growth of established B16 melanomas,[5],suppressed
same,increase in duration of survival,[5]; diet providing an intake of 7 μmol/d,35%
same,duration of host survival,[5],significantly increased
same,growth of implanted murine melanoma B16F10 tumors,[6]; 116-2000 μmol/kg diet,suppressed
"CC(C)=CCCC(C)=CCCC(C)=CCCC1(C)CCc2cc(O)cc(C)c2O1 (stereo not drawn) [d-δ-Tocotrienol, 2,8-dimethyl-2-(4,8,12-trimethyltrideca-3,7,11-trienyl)-chroman-6-ol]",IC50,[1]; [8],10 µM
CC(=O)C=CC1=C(C)CCCC1(C)C [β-Ionone],reduction of 48 hour cell count,B16 melanoma cells; 50 μmol/L,10%
same,reduction of 48 hour cell count,B16 melanoma cells; 75 μmol/L,31%
same,reduction of 48 hour cell count,B16 melanoma cells; 100 μmol/L,16%
same,reduction of 48 hour cell count,B16 melanoma cells; 150 μmol/L,65%
same,IC50,[1]; [8],140 ± 23 µM
same,IC50,[3],140 µM
same,Growth,[4]; 50 μmol/L,90 % of Control
same,Growth,[4]; 100 μmol/L,84 % of Control
same,decrease in cell growth,[4]; 150 μM,32%
same,Growth,[4]; 150 μmol/L,68 % of Control
same,"Days survival, Mean",[5]; 2 mmol/kg diet,18.27^a Days
same,"Days survival, Median",[5]; 2 mmol/kg diet,23.0 days
same,growth of established B16 melanomas,[5],suppressed
same,duration of host survival,[5],significantly increased
same,growth of implanted murine melanoma B16F10 tumors,[6]; 2 mmol/kg diet,suppressed
